According to ChEMBL document CHEMBL1201862, “PubChem BioAssay data set” (2004):
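Protocol summary: plate cells (96-well), add compound at 5 concentrations, incubate 48 h, interpolate endpoints linearly. GI50 is the concentration that inhibits growth by half.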 The source made the active and inactive calls. Rule as the data show it: active = GI50 up to about 1.1 µM and inactive = higher.

Experiments:
Assay in all cases: DTP human tumour cell line panel, 48 h
CAKI-1 = test system: CAKI-1
HT-29 = test system: HT-29
Hs-578T = test system: Hs-578T
IGROV-1 = test system: IGROV-1
K562 = test system: K562
M14 = test system: M14
MDA-MB-231 = test system: MDA-MB-231
NCI-H226 = test system: NCI-H226
OVCAR-4 = test system: OVCAR-4
OVCAR-5 = test system: OVCAR-5
RPMI-8226 = test system: RPMI-8226
SF-268 = test system: SF-268
SF-539 = test system: SF-539
SK-MEL-2 = test system: SK-MEL-2
SK-OV-3 = test system: SK-OV-3
SR = test system: SR
SW-620 = test system: SW-620
T47D = test system: T47D
UO-31 = test system: UO-31
DU-145 = test system: DU-145

Measured: GI50

CN(CC(=O)O)Cc1oc(CO)cc(=O)c1O
inactive: CAKI-1 > 100 µM | HT-29 > 100 µM | Hs-578T > 100 µM | IGROV-1 > 100 µM | K562 > 100 µM | M14 > 100 µM | MDA-MB-231 > 100 µM | NCI-H226 > 100 µM | OVCAR-4 > 100 µM | OVCAR-5 > 100 µM | RPMI-8226 > 100 µM | SF-268 > 100 µM | SF-539 > 100 µM | SK-MEL-2 > 100 µM | SK-OV-3 > 100 µM | SR > 100 µM | SW-620 > 100 µM | T47D > 100 µM | UO-31 > 100 µM

O=C(C1OC1c1ccc([N+](=O)[O-])cc1)C12CC3CC(CC(C3)C1)C2 (configuration not stated)
inactive: CAKI-1 20.3 µM | DU-145 18.2 µM | HT-29 21.4 µM | Hs-578T 19 µM | IGROV-1 16.4 µM | K562 13.1 µM | M14 15.2 µM | MDA-MB-231 16.7 µM | NCI-H226 17.2 µM | OVCAR-4 17.8 µM | OVCAR-5 21 µM | SF-268 18.5 µM | SF-539 15.3 µM | SK-MEL-2 23.4 µM | SK-OV-3 23.2 µM | SW-620 20.7 µM | T47D 16.6 µM | UO-31 18.3 µM

N#CCc1nc(Cc2ccccc2)n[nH]1
inactive: CAKI-1 > 100 µM | DU-145 > 100 µM | HT-29 > 100 µM | Hs-578T > 100 µM | IGROV-1 > 100 µM | K562 > 100 µM | M14 > 100 µM | MDA-MB-231 > 100 µM | OVCAR-4 > 100 µM | OVCAR-5 > 100 µM | SF-268 > 100 µM | SF-539 > 100 µM | SK-MEL-2 > 100 µM | SK-OV-3 > 100 µM | SR > 100 µM | SW-620 > 100 µM | T47D > 100 µM | UO-31 > 100 µM

CC1CC(C)[C@H](O)C([C@H](O)CC2CC(=O)N(C)C(=O)C2)C1 (some centres not stated)
inactive: CAKI-1 > 100 µM | DU-145 > 100 µM | HT-29 > 100 µM | Hs-578T > 100 µM | IGROV-1 > 100 µM | K562 > 100 µM | M14 > 100 µM | MDA-MB-231 > 100 µM | NCI-H226 > 100 µM | OVCAR-4 > 100 µM | OVCAR-5 > 100 µM | RPMI-8226 > 100 µM | SF-268 > 100 µM | SF-539 > 100 µM | SK-MEL-2 > 100 µM | SK-OV-3 > 100 µM | SW-620 > 100 µM | T47D > 100 µM | UO-31 > 100 µM

COc1cc(C2S/C(=C/c3ccccc3)C(=O)N2c2cccc([N+](=O)[O-])c2)cc(OC)c1OC (configuration not stated)
active: T47D 0.156 µM
inactive: CAKI-1 48.8 µM | HT-29 50.1 µM | Hs-578T > 100 µM | K562 51.5 µM | M14 72.1 µM | MDA-MB-231 51.8 µM | NCI-H226 > 100 µM | OVCAR-4 83.2 µM | OVCAR-5 > 100 µM | SF-268 76.2 µM | SK-MEL-2 15.9 µM | SK-OV-3 > 100 µM | SR 46.6 µM | UO-31 94.6 µM

COc1cc(NP(=O)(Oc2ccccc2)Oc2ccccc2)ccc1Nc1c2ccccc2nc2c1[nH]c1ccccc12
inactive: Hs-578T 17.1 µM | K562 1.62 µM | MDA-MB-231 4.68 µM | OVCAR-4 3.22 µM | OVCAR-5 10.5 µM | SF-268 6.52 µM | SK-MEL-2 7.24 µM | SK-OV-3 1.88 µM | SW-620 1.22 µM
active: CAKI-1 0.261 µM | DU-145 0.286 µM | HT-29 0.953 µM | IGROV-1 0.0923 µM | M14 0.891 µM | SF-539 0.36 µM | SR < 0.0158 µM | T47D 0.867 µM | UO-31 0.617 µM

Cn1cnc2c1c(=O)n(CCNCCO)c(=O)n2C
inactive: CAKI-1 > 100 µM | DU-145 > 100 µM | HT-29 > 100 µM | Hs-578T > 100 µM | IGROV-1 > 100 µM | K562 > 100 µM | M14 > 100 µM | MDA-MB-231 > 100 µM | NCI-H226 > 100 µM | OVCAR-4 > 100 µM | OVCAR-5 > 100 µM | RPMI-8226 > 100 µM | SF-268 > 100 µM | SF-539 > 100 µM | SK-MEL-2 > 100 µM | SK-OV-3 > 100 µM | SW-620 > 100 µM | T47D > 100 µM | UO-31 > 100 µM

Cc1nc(-c2cc3c(ccc4ccccc43)oc2=O)cc2c1c(=O)oc1ccc3ccccc3c12
inactive: CAKI-1 > 100 µM | DU-145 > 100 µM | HT-29 > 100 µM | IGROV-1 > 100 µM | K562 > 100 µM | M14 > 100 µM | MDA-MB-231 > 100 µM | OVCAR-4 > 100 µM | OVCAR-5 > 100 µM | SF-268 > 100 µM | SF-539 > 100 µM | SK-MEL-2 > 100 µM | SK-OV-3 > 100 µM | SR > 100 µM | SW-620 > 100 µM | T47D > 100 µM | UO-31 > 100 µM

Cc1n[nH]c(=O)n1/N=C/c1cccc(Cl)c1
inactive: CAKI-1 > 100 µM | DU-145 35.6 µM | HT-29 > 100 µM | Hs-578T 17.7 µM | K562 > 100 µM | M14 > 100 µM | MDA-MB-231 > 100 µM | NCI-H226 > 100 µM | OVCAR-4 76.9 µM | OVCAR-5 > 100 µM | RPMI-8226 > 100 µM | SF-268 63.7 µM | SF-539 89.5 µM | SK-MEL-2 > 100 µM | SK-OV-3 > 100 µM | SW-620 > 100 µM | T47D > 100 µM | UO-31 > 100 µM

O=C1C=CC[C@H](/C=C/C[C@@H](O)C[C@H](O)/C=C/c2ccccc2)O1
inactive: CAKI-1 6.4 µM | DU-145 13.3 µM | HT-29 11.4 µM | Hs-578T 19.3 µM | IGROV-1 13.6 µM | K562 10.9 µM | M14 14.4 µM | MDA-MB-231 10.5 µM | NCI-H226 12.8 µM | OVCAR-4 14.6 µM | OVCAR-5 15.1 µM | SF-268 21.8 µM | SF-539 9.89 µM | SK-MEL-2 12.3 µM | SK-OV-3 15 µM | SW-620 13.5 µM | T47D 14.3 µM | UO-31 13.2 µM

OCCNCNc1nc(NCNCCO)nc(N(CNCCO)CNCCO)n1
inactive: CAKI-1 22.4 µM | DU-145 18.5 µM | HT-29 21.7 µM | Hs-578T 32 µM | IGROV-1 22.6 µM | K562 19.9 µM | M14 19 µM | MDA-MB-231 22.8 µM | NCI-H226 22.6 µM | OVCAR-4 25.9 µM | OVCAR-5 13.6 µM | RPMI-8226 > 43.8 µM | SF-268 23.7 µM | SF-539 19.6 µM | SK-MEL-2 21.5 µM | SK-OV-3 > 43.7 µM | SW-620 19.8 µM | T47D 23.7 µM | UO-31 33.2 µM

CCOC(=O)C(=[N+]=[N-])C(=O)CSC#N
inactive: CAKI-1 32.7 µM | DU-145 > 100 µM | HT-29 39.3 µM | Hs-578T > 100 µM | IGROV-1 > 100 µM | M14 23.8 µM | MDA-MB-231 82.2 µM | NCI-H226 40.6 µM | OVCAR-4 40.6 µM | OVCAR-5 > 100 µM | SF-268 > 100 µM | SF-539 21.3 µM | SK-MEL-2 > 100 µM | SK-OV-3 > 100 µM | SW-620 57.3 µM | T47D > 100 µM | UO-31 31.2 µM

CCOC(=O)C1(C/C=C\CBr)CCCCCCCCCCC1=O (configuration not stated)
inactive: CAKI-1 13.9 µM | DU-145 17.1 µM | HT-29 4.38 µM | Hs-578T 20 µM | IGROV-1 2.94 µM | K562 3.95 µM | M14 15.7 µM | MDA-MB-231 3.36 µM | NCI-H226 2.88 µM | OVCAR-4 10.6 µM | OVCAR-5 16.2 µM | RPMI-8226 2.81 µM | SF-268 11 µM | SF-539 3.43 µM | SK-MEL-2 15.3 µM | SK-OV-3 16.8 µM | SW-620 13.5 µM | T47D 12.1 µM | UO-31 2.9 µM

CN(C)CCNc1ccc(CO)c2sc3ccc(O)cc3c(=O)c12
active: CAKI-1 0.957 µM | DU-145 0.467 µM | SF-539 0.459 µM | SR < 0.0157 µM | UO-31 0.35 µM
inactive: HT-29 2.3 µM | IGROV-1 3.42 µM | K562 2.06 µM | M14 3.01 µM | MDA-MB-231 1.85 µM | NCI-H226 1.15 µM | OVCAR-4 4.63 µM | OVCAR-5 5.26 µM | RPMI-8226 1.69 µM | SF-268 1.55 µM | SK-MEL-2 5.21 µM | SK-OV-3 1.76 µM | SW-620 1.17 µM | T47D 1.91 µM

O=C1c2ccccc2S(=O)(=O)c2ccccc21
inactive: CAKI-1 > 100 µM | DU-145 > 100 µM | HT-29 > 100 µM | Hs-578T 72.1 µM | IGROV-1 > 100 µM | K562 > 100 µM | M14 > 100 µM | MDA-MB-231 > 100 µM | NCI-H226 > 100 µM | OVCAR-4 > 100 µM | OVCAR-5 > 100 µM | RPMI-8226 > 100 µM | SF-268 > 100 µM | SF-539 > 100 µM | SK-MEL-2 > 100 µM | SK-OV-3 > 100 µM | SW-620 > 100 µM | T47D > 100 µM | UO-31 > 100 µM
